Measurements from US20030022251A1, “Gamma-secretase in vitro screening assay” (Boehringer Ingelheim Pharma KG, priority 2001, published 2003).
“Also recorded” adds a separate entry of the source.

Assays:
γ-secretase [1] = biological target: T1, γ-secretase (Homo sapiens, UniProt P49768); assay: Analysis of CTFγ and βAPP CTFs in membrane fractions of inhibitor-treated HEK 293 cells stably transfected with swAPP (immunoprecipitation/immunoblotting with antibody 6687); type: cell-based; details: increasing concentrations of DAPT for 4 h
T1 construct: HEK 293 cells stably transfected with swAPP were treated with the indicated concentrations of DAPT for 4 h; endogenous in cells; host or cells: HEK 293 cells stably transfected with swAPP695 (only the substrate is transfected; the γ-secretase is the cells' own)
Protocol: FIG. 1: Identification of in vivo produced CTFγ in human cells and mouse brain according to Example 1: (A) Membrane fractions of HEK 293 cells stably transfected with Swedish mutant βAPP695 (swAPP) were analyzed by combined immunoprecipitation/immunoblotting with antibody 6687 to the C-terminus of βAPP. Three βAPP CTFs were detected (C99 (=CTFβ), C83 (=CTFα), and the approximately 6 kDa CTFγ). The same βAPP CTFs including the approximately 6 kDa CTFγ were also observed by immunoblotting with antibody 6687 in mouse brain. (B) The γ-secretase inhibitor DAPT inhibits CTFγ production. HEK 293 cells stably transfected with swAPP were treated with the indicated concentrations of DAPT for 4 h. Upper and middle panel: Membrane fractions were prepared and analyzed for βAPP CTFs by combined immunoprecipitation/immunoblotting with antibody 6687. […] Lower panel: Conditioned media were analyzed for secreted Aβ by combined immunoprecipitation/immunoblotting with antibodies 3926/6E10. […] (C) CTFγ production is dependent on biologically active presenilins. Membrane fractions from control cells expressing PS1 wt or cells stably expressing PS1 D385N were analyzed by combined immunoprecipitation/immunoblotting with antibody 6687. […]
CTFγ was analyzed by combined immunoprecipitation/westernblotting with antibody 6687 of membrane extracts from stably transfected HEK 293 cells or from mouse brain. […]

γ-secretase [2] = biological target: T1, γ-secretase; assay: Analysis of secreted Aβ in conditioned media of HEK 293 swAPP cells (immunoprecipitation/immunoblotting with antibodies 3926/6E10); type: cell-based; details: DAPT for 4 h, FIG. 1B lower panel
Protocol: FIG. 1: Identification of in vivo produced CTFγ in human cells and mouse brain according to Example 1: (A) Membrane fractions of HEK 293 cells stably transfected with Swedish mutant βAPP695 (swAPP) were analyzed by combined immunoprecipitation/immunoblotting with antibody 6687 to the C-terminus of βAPP. Three βAPP CTFs were detected (C99 (=CTFβ), C83 (=CTFα), and the approximately 6 kDa CTFγ). The same βAPP CTFs including the approximately 6 kDa CTFγ were also observed by immunoblotting with antibody 6687 in mouse brain. (B) The γ-secretase inhibitor DAPT inhibits CTFγ production. HEK 293 cells stably transfected with swAPP were treated with the indicated concentrations of DAPT for 4 h. Upper and middle panel: Membrane fractions were prepared and analyzed for βAPP CTFs by combined immunoprecipitation/immunoblotting with antibody 6687. […] Lower panel: Conditioned media were analyzed for secreted Aβ by combined immunoprecipitation/immunoblotting with antibodies 3926/6E10. […] Membrane fractions from control cells expressing PS1 wt or cells stably expressing PS1 D385N were analyzed by combined immunoprecipitation/immunoblotting with antibody 6687. […]
Aβ was immunoprecipitated from conditioned media collected for 4 h with antibody 3926, separated on Tris-Tricine gels and detected by immunoblotting with antibody 6E10 using a chemiluminescent detection system (Tropix, USA).

γ-secretase [3] = assay: In vitro generation of CTFγ from membrane preparations of HEK 293 cells stably transfected with swAPP (immunoblotting with antibody 6687); type: biochemical, human; details: 250 nM DAPT
Protocol: FIG. 2: In vitro generation of CTFγ according to Example 1: (A) Time dependent in vitro production of CTFγ. Membrane preparations were incubated at 37° C. for the indicated time points. The reaction mixtures were then separated in a soluble fraction (S100; lower panel) and a pellet fraction (P100; upper panel) by ultracentrifugation. These fractions were immunoblotted with antibody 6687. Note the selective accumulation of CTFγ in the S100(lower panel) fraction after 1-2 h incubation time. Very minor amounts of CTFγ were detected in the P100 fraction, which may be due to sticking of the highly hydrophobic CTFγ to membranes or to contamination of the P100 fraction with minor amounts of soluble proteins. (B) Two independent γ-secretase inhibitors (DAPT and “Compound 1”) inhibit the in vitro production of CTFγ. Membrane preparations were incubated with (+) or without (−) 250 nM DAPT (left panel) or 50 μM CM256 (right panel). The S100 fractions of the reaction mixtures were immunoblotted with antibody 6687. […]
CTFγ was generated in vitro from membrane preparations of HEK 293 cells stably transfected with swAPP following previously described procedures (McLendon et al., 2000; Pinnix et al., 2001). […] Following SDS-PAGE on 10-20% Tris-Tricine gels (Invitrogen) samples were analyzed for CTFγ by immunoblotting with antibody 6687.

## C[C@H](NC(=O)Cc1cc(F)cc(F)c1)C(=O)N[C@H](C(=O)OC(C)(C)C)c1ccccc1 [DAPT, N-[N-(3,5-difluorophenacetyl)-L-alanyl]-S-phenylglycin t-butyl ester]
γ-secretase [1]; FIG. 1B middle panel
  CTFγ generation: significant block of CTFγ generation; also recorded: dose dependent inhibition of CTFγ generation
γ-secretase [1]; FIG. 1B upper panel
  CTFβ and CTFα levels: build up of CTFβ and CTFα; also recorded: increase of βAPP CTFβ and CTFα
γ-secretase [2]
  secreted Aβ generation: dose dependent inhibition; also recorded: severely reduced Aβ production
γ-secretase [3]; membrane preparations at 37° C., S100 fraction, FIG. 2B left panel
  in vitro CTFγ generation: significantly reduce CTFγ generation; also recorded: efficiently reduced in vitro generation of CTFγ
γ-secretase [3]; membranes from cells expressing the inactive PS1 D385N mutation, FIG. 2D
  remaining in vitro CTFγ production: reduces the remaining in vitro CTFγ production; also recorded: further reduced
